Consider two molecules from patent publication US10537603B2, “Pharmaceutical composition for preventing or treating angioedema, containing extract of peony root or mixture of peony root and licorice as active ingredient” (Korea Institute of Oriental Medicine, priority 2014, dated 2020).

Test [1] has as its system advanced glycation end product (AGE) generation. As to the kind of experiment: Inhibition of advanced glycation end product (AGE) generation, BSA with fructose/glucose, fluorescence. The format is biochemical. Conditions: BSA 10 mg/ml, 0.2 M fructose + 0.2 M glucose, 37° C., 7 days. As for the experimental part:
To determine the inhibitory effect of advanced glycation end product generation of the peony root extract, or the mixed extract of peony root and licorice, the present inventors used 10 mg/ml of bovine serum albumin (Sigma, St. Louis, Mo., USA) dissolved in 50 mM phosphate buffer (pH 7.4) as a protein source and a mixed liquid of 0.2 M fructose and 0.2 M glucose as a sugar source, respectively.
The extracts of <Example 1> and a positive control group (aminoguanidine) were dissolved in 30 μl of 0.2% DMSO, and then again dissolved in 15% tween 80. The protein source, the sugar source and the extracts of the present invention as prepared above were mixed and compounded to a total of 1 ml, and then each cultured at 37° C. for 7 days to allow for glycation. At this time 0.02% azide (sodium azide) was added thereto to prevent from generating bacteria during the culture period. After the culture fluorescence (spectrofluorometric detector; Bio-TEK, Synergy HT, USA; Ex: 350 nm; Em: 450 nm) was measured and then calculated with Equation 1 below, with showing the result in Table 2.

Test [2] concerns MNU-induced animal models. The test is described as follows: Comparison of CJG30R and paeoniflorin in MNU-induced age-related macular degeneration model (ONL thickness). The format is in vivo, C57BL/6 mice. Conditions: CJG30R 100 mg/kg, PF 6.5 mg/kg oral. The procedure: The 6-week-old male C57BL/6 mice were used after acclimatization for 1 week. To induce damage and degeneration of photoreceptor cells among morphological changes of retinal tissues appearing in macular degeneration, 1% (0.05% acetic acid) N-methyl-N-nitrosourea (MNU, Sigma, USA) was intraperitoneally injected to the 7-week-old male C57BL/6 mice (60 mg/kg). The same amount of 0.05% acetic acid was intraperitoneally administered to the normal group. CJG30R (100 mg/kg) and PF-6.6 (6.5 mg/kg) as test drugs were suspended and compounded in 0.5% sodium carboxymethyl cellulose (CMC), orally administrated one day before MNU administration, and orally administrated once per day for 7 days after MNU administration. The same amount of 0.5% CMC was orally administrated to the normal group and the MNU-induced group. After completing administration of the test drugs, eyes were enucleated by carrying out an autopsy on the mice, and then mounted on 10% neutralized formalin for one day and embedded in paraffin to prepare slide sections. Slide sections were stained with Hematoxylin & Eosin (H & E) and observed under an optical microscope. The damage and degeneration of the photoreceptor cells were measured and evaluated by thickness changes in the outer nuclear layer of the retinal tissues.

For test [3], the system named is human retinal pigment epithelial cell lines (ARPE-19). The settings on record: ARPE-19, Molecular Vision 2011; 17: 3512-3522; cited from earlier work.

Each structure is given as a SMILES string.

On to `N=C(N)NN` [Aminoguanidine, aminoguanidine], for which the “IC50, inhibitory effect of advanced glycation end product generation” value in test [1] was determined as 81.38 ± 2.70 µg/mL.
Turning to `C[C@@]12C[C@@]3(O)O[C@@H](O1)[C@]1(COC(=O)c4ccccc4)[C@H]3C[C@@]12O[C@@H]1O[C@H](CO)[C@@H](O)[C@H](O)[C@H]1O` [PF-6.5, paeoniflorin], the “Effect on outer nuclear layer damage as compared to the MNU administration group” value in test [2] is on record as “no effect at all”. The “ONL thickness (AU)” value in test [2] (MNU 60 mg/kg i.p., NOR 1.99 ± 0.21, MNU 0.92 ± 0.17) was determined as 0.96 ± 0.17 AU. For the same molecule, the “ONL thickness (%)” value in test [2] (NOR = 100, MNU = 0) stood at 3.52 ± 16.11%. In addition, the “Effect on cell death due to H2O2 and oxidative stress” value in test [3] is “inhibitory effects”.
